Data: US12344603B2 (Genentech, Inc., priority 2020, dated 2025)
Counter-ions that a name gives are not always drawn.

target: IRE1α (Homo sapiens (Human), UniProt O75460, D688N); assay: IRE1α TR-FRET competition binding assay (IRE1α HTRF); details: TR-FRET competition binding to kinase domain of IRE1α
Method: IRE1α TR-FRET Competition Binding Assay. The affinity of compound binding to the kinase domain of IRE1α was determined using a time-resolved fluorescence resonance energy transfer (TR-FRET) competition assay.
The purified protein (final concentration 0.25 nM) was pre-incubated with anti-His Europium labeled antibody (Life Technologies PV5596, final concentration 2 nM) for one hour at 4° C. in TR-FRET Assay Buffer (50 mM HEPES, pH 7.5, 10 mM MgCl2, 0.083 mM Brij 35, 1 mM DTT, and 0.1% bovine gamma globulin) prior to addition to test compounds. An Alexa fluor 647-labeled probe based on an ATP competitive inhibitor was added to a final concentration of 2 nM. Reactions were carried out for one hour at room temperature in a final volume of 20 μL in 384 well white ProxiPlates (Perkin Elmer 6008289). Binding of the probe to the IRE1α protein was detected in an Envision instrument (PerkinElmer) equipped with a TRF laser option and a LANCE/Delfia Dual/Bias D400/D630 mirror (Ex 347 nm, 1st Em 665 nm, 2nd Em 615 nm).

Sequence of IRE1α (O75460 547-977 D688N): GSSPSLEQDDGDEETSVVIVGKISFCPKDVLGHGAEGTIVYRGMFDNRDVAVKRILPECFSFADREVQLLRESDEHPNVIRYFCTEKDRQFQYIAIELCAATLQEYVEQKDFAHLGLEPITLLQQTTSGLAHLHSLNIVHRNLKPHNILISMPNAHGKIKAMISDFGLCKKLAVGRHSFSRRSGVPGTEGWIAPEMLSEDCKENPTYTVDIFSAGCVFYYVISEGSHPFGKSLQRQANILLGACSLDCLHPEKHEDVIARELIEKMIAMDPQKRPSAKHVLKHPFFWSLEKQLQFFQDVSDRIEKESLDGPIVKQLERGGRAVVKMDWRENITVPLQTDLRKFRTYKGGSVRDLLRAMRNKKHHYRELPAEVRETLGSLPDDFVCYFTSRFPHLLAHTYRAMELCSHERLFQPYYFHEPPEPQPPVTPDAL

Row | SMILES | IC50 [nM]
1 | CCn1c(=O)c(-c2cc(F)c(NS(=O)(=O)Cc3ccccc3)c(F)c2F)cc2cnc(N[C@@H]3CNC[C@@H](F)C3)nc21 [Compound 15, N-(4-(8-Ethyl-2-(((3S,5S)-5-fluoropiperidin-3-yl)amino)-7-oxo-7,8-dihydropyrido[2,3-d]pyrimidin-6-yl)-2,3,6-trifluorophenyl)-1-phenylmethanesulfonamide] | 0.21
2 | CC(C)n1c(=O)c(-c2ccc(F)c(NS(=O)(=O)Cc3ccccc3)c2)cc2cnc(N[C@H]3CCCNC3)nc21 [Compound 17, (S)—N-(2-Fluoro-5-(8-isopropyl-7-oxo-2-(piperidin-3-ylamino)-7,8-dihydropyrido[2,3-d]pyrimidin-6-yl)phenyl)-1-phenylmethanesulfonamide hydrochloride] | 11
3 | O=c1c(-c2ccc(NS(=O)(=O)Cc3ccccc3)c(F)c2F)cc2cnc(N[C@@H]3CNC[C@@H](F)C3)nc2n1C1CCCC1 [Compound 18, N-(4-(8-Cyclopentyl-2-(((3S,5S)-5-fluoropiperidin-3-yl)amino)-7-oxo-7,8-dihydropyrido[2,3-d]pyrimidin-6-yl)-2,3-difluorophenyl)-1-phenylmethanesulfonamide] | 0.41
4 | CC(C)n1c(=O)c(-c2cc(F)c(NS(=O)(=O)Cc3ccccc3)c(F)c2F)cc2cnc(N[C@H]3CC[C@H](N(C)C)CC3)nc21 [Compound 24, N-(4-(2-(((1r,4r)-4-(Dimethylamino)cyclohexyl)amino)-8-isopropyl-7-oxo-7,8-dihydropyrido[2,3-d]pyrimidin-6-yl)-2,3,6-trifluorophenyl)-1-phenylmethanesulfonamide] | 2.7
5 | CC(C)n1c(=O)c(-c2cc(F)c(NS(=O)(=O)Cc3ccccc3)c(F)c2F)cc2cnc(N[C@@H]3CNC[C@@H](F)C3)nc21 [Compound 26, 1-Phenyl-N-(2,3,6-trifluoro-4-(2-(((3S,5S)-5-fluoropiperidin-3-yl)amino)-8-isopropyl-7-oxo-7,8-dihydropyrido[2,3-d]pyrimidin-6-yl)phenyl)methanesulfonamide] | 0.19
6 | CC(C)n1c(=O)c(-c2cc(F)c(NS(=O)(=O)Cc3ccccc3)c(F)c2F)cc2cnc(N[C@@H]3CNC[C@@](C)(F)C3)nc21 [Compound 27, 1-Phenyl-N-(2,3,6-trifluoro-4-(2-(((3S,5S)-5-fluoro-5-methylpiperidin-3-yl)amino)-8-isopropyl-7-oxo-7,8-dihydropyrido[2,3-d]pyrimidin-6-yl)phenyl)methanesulfonamide] | 0.22
7 | CC(C)n1c(=O)c(-c2cc(F)c(NS(=O)(=O)Cc3ccccc3C#N)c(F)c2F)cc2cnc(N[C@@H]3CNC[C@@H](F)C3)nc21 [Compound 32, 1-(2-Cyanophenyl)-N-(2,3,6-trifluoro-4-(2-(((3S,5S)-5-fluoropiperidin-3-yl)amino)-8-isopropyl-7-oxo-7,8-dihydropyrido[2,3-d]pyrimidin-6-yl)phenyl)methanesulfonamide] | 0.34
8 | CC(C)n1c(=O)c(-c2cc(F)c(NS(=O)(=O)CCC(C)(F)F)c(F)c2F)cc2cnc(N[C@H]3CC[C@H](N(C)C)CC3)nc21 [Compound 33, N-(4-(2-(((1r,4r)-4-(Dimethylamino)cyclohexyl)amino)-8-isopropyl-7-oxo-7,8-dihydropyrido[2,3-d]pyrimidin-6-yl)-2,3,6-trifluorophenyl)-3,3-difluorobutane-1-sulfonamide] | 0.98
9 | O=c1c(-c2ccc(NS(=O)(=O)Cc3ccccc3)c(F)c2F)cc2cnc(N[C@@H]3CNC[C@@H](F)C3)nc2n1CC(F)(F)F [Compound 40, N-(2,3-Difluoro-4-(2-(((3S,5S)-5-fluoropiperidin-3-yl)amino)-7-oxo-8-(2,2,2-trifluoroethyl)-7,8-dihydropyrido[2,3-d]pyrimidin-6-yl)phenyl)-1-phenylmethanesulfonamide] | 1.7
10 | CCC1CCN(c2ccc(-c3cc4cnc(N[C@@H]5CNC[C@@H](F)C5)nc4n(CC)c3=O)c(F)c2F)C1=O (stereo partly drawn) [Compound 41, 8-Ethyl-6-(4-(3-ethyl-2-oxopyrrolidin-1-yl)-2,3-difluorophenyl)-2-(((3S,5S)-5-fluoropiperidin-3-yl)amino)pyrido[2,3-d]pyrimidin-7(8H)-one] | 87

Next, values leading:

Row | IC50 [nM] | SMILES
11 | 5.8 | CC(C)n1c(=O)c(-c2cccc(NS(=O)(=O)Cc3ccccc3)c2F)cc2cnc(N[C@H]3CCCNC3)nc21 [Compound 16, (S)—N-(2-Fluoro-3-(8-isopropyl-7-oxo-2-(piperidin-3-ylamino)-7,8-dihydropyrido[2,3-d]pyrimidin-6-yl)phenyl)-1-phenylmethanesulfonamide]
12 | 2.2 | CC(C)n1c(=O)c(-c2ccc(F)c(NS(=O)(=O)Cc3ccccc3)c2F)cc2cnc(N[C@H]3CCCNC3)nc21 [Compound 19, (S)—N-(2,6-Difluoro-3-(8-isopropyl-7-oxo-2-(piperidin-3-ylamino)-7,8-dihydropyrido[2,3-d]pyrimidin-6-yl)phenyl)-1-phenylmethanesulfonamide]
13 | 1.2 | CC(C)Nc1ncc2cc(-c3cc(F)c(NS(=O)(=O)Cc4ccccc4)c(F)c3F)c(=O)n(C(C)C)c2n1 [Compound 20, 1-Phenyl-N-(2,3,6-trifluoro-4-(8-isopropyl-2-(isopropylamino)-7-oxo-7,8-dihydropyrido[2,3-d]pyrimidin-6-yl)phenyl)methanesulfonamide]
14 | 16 | CC(C)Nc1ncc2cc(-c3cc(F)c(NS(=O)(=O)CCC(F)(F)F)c(F)c3F)c(=O)n(C(C)C)c2n1 [Compound 21, 3,3,3-Trifluoro-N-(2,3,6-trifluoro-4-(8-isopropyl-2-(isopropylamino)-7-oxo-7,8-dihydropyrido[2,3-d]pyrimidin-6-yl)phenyl)propane-1-sulfonamide]
15 | 0.33 | CC(C)n1c(=O)c(-c2cc(F)c(NS(=O)(=O)CCC(F)(F)F)c(F)c2F)cc2cnc(N[C@H]3CC[C@H](N(C)C)CC3)nc21 [Compound 25, N-(4-(2-(((1r,4r)-4-(Dimethylamino)cyclohexyl)amino)-8-isopropyl-7-oxo-7,8-dihydropyrido[2,3-d]pyrimidin-6-yl)-2,3,6-trifluorophenyl)-3,3,3-trifluoropropane-1-sulfonamide]
16 | 0.19 | O=c1c(-c2cc(F)c(NS(=O)(=O)Cc3ccccc3)c(F)c2F)cc2cnc(N[C@@H]3CNC[C@@H](F)C3)nc2n1C1CCC1 [Compound 28, N-(4-(8-Cyclobutyl-2-(((3S,5S)-5-fluoropiperidin-3-yl)amino)-7-oxo-7,8-dihydropyrido[2,3-d]pyrimidin-6-yl)-2,3,6-trifluorophenyl)-1-phenylmethanesulfonamide]
17 | 0.21 | CC(C)n1c(=O)c(-c2cc(F)c(NS(=O)(=O)Cc3ccc(C#N)cc3)c(F)c2F)cc2cnc(N[C@@H]3CNC[C@@H](F)C3)nc21 [Compound 29, 1-(4-Cyanophenyl)-N-(2,3,6-trifluoro-4-(2-(((3S,5S)-5-fluoropiperidin-3-yl)amino)-8-isopropyl-7-oxo-7,8-dihydropyrido[2,3-d]pyrimidin-6-yl)phenyl)methanesulfonamide]
18 | 0.21 | CC(C)n1c(=O)c(-c2cc(F)c(NS(=O)(=O)Cc3cccc(C#N)c3)c(F)c2F)cc2cnc(N[C@@H]3CNC[C@@H](F)C3)nc21 [Compound 30, 1-(3-Cyanophenyl)-N-(2,3,6-trifluoro-4-(2-(((3S,5S)-5-fluoropiperidin-3-yl)amino)-8-isopropyl-7-oxo-7,8-dihydropyrido[2,3-d]pyrimidin-6-yl)phenyl)methanesulfonamide]
19 | 0.11 | COc1cccc(CS(=O)(=O)Nc2c(F)cc(-c3cc4cnc(N[C@@H]5CNC[C@@H](F)C5)nc4n(C(C)C)c3=O)c(F)c2F)c1 [Compound 31, 1-(3-Methoxyphenyl)-N-(2,3,6-trifluoro-4-(2-(((3S,5S)-5-fluoropiperidin-3-yl)amino)-8-isopropyl-7-oxo-7,8-dihydropyrido[2,3-d]pyrimidin-6-yl)phenyl)methanesulfonamide hydrochloride]
20 | 0.18 | CCC(F)(F)CS(=O)(=O)Nc1c(F)cc(-c2cc3cnc(N[C@H]4CC[C@H](N(C)C)CC4)nc3n(C(C)C)c2=O)c(F)c1F [Compound 36, N-(4-(2-(((1r,4r)-4-(Dimethylamino)cyclohexyl)amino)-8-isopropyl-7-oxo-7,8-dihydropyrido[2,3-d]pyrimidin-6-yl)-2,3,6-trifluorophenyl)-2,2-difluorobutane-1-sulfonamide]
21 | 1.4 | CC(C)n1c(=O)c(-c2cc(F)c(NC(=O)C3CC3)c(F)c2F)cc2cnc(N[C@H]3CC[C@H](N(C)C)CC3)nc21 [Compound 37, N-(4-(2-(((1r,4r)-4-(Dimethylamino)cyclohexyl)amino)-8-isopropyl-7-oxo-7,8-dihydropyrido[2,3-d]pyrimidin-6-yl)-2,3,6-trifluorophenyl)cyclopropanecarboxamide]
22 | 0.39 | CC(C)n1c(=O)c(-c2cc(F)c(NS(=O)(=O)Cc3ccn(C)n3)c(F)c2F)cc2cnc(N[C@@H]3CNC[C@@H](F)C3)nc21 [Compound 38, 1-(1-Methyl-1H-pyrazol-3-yl)-N-(2,3,6-trifluoro-4-(2-(((3S,5S)-5-fluoropiperidin-3-yl)amino)-8-isopropyl-7-oxo-7,8-dihydropyrido[2,3-d]pyrimidin-6-yl)phenyl)methanesulfonamide]
23 | 0.4 | CCn1c(=O)c(-c2cc(F)c(NS(=O)(=O)Cc3cccc(C(F)(F)F)c3)c(F)c2F)cc2cnc(N[C@@H]3CNC[C@@H](F)C3)nc21 [Compound 39, N-(4-(8-Ethyl-2-(((3S,5S)-5-fluoropiperidin-3-yl)amino)-7-oxo-7,8-dihydropyrido[2,3-d]pyrimidin-6-yl)-2,3,6-trifluorophenyl)-1-(3-(trifluoromethyl)phenyl)methanesulfonamide]
